45 compounds from ChEMBL document CHEMBL3352043, “Discovery of small-molecule inhibitors selectively targeting the DNA-binding domain of the human androgen receptor” (J Med Chem, 2014) can be followed below.

The source made the active and inactive calls. The rule behind the calls is not given here.

The target of data set [1] is T1, Androgen receptor (Homo sapiens, UniProt P10275).
T1 sequence (P10275 whole entry): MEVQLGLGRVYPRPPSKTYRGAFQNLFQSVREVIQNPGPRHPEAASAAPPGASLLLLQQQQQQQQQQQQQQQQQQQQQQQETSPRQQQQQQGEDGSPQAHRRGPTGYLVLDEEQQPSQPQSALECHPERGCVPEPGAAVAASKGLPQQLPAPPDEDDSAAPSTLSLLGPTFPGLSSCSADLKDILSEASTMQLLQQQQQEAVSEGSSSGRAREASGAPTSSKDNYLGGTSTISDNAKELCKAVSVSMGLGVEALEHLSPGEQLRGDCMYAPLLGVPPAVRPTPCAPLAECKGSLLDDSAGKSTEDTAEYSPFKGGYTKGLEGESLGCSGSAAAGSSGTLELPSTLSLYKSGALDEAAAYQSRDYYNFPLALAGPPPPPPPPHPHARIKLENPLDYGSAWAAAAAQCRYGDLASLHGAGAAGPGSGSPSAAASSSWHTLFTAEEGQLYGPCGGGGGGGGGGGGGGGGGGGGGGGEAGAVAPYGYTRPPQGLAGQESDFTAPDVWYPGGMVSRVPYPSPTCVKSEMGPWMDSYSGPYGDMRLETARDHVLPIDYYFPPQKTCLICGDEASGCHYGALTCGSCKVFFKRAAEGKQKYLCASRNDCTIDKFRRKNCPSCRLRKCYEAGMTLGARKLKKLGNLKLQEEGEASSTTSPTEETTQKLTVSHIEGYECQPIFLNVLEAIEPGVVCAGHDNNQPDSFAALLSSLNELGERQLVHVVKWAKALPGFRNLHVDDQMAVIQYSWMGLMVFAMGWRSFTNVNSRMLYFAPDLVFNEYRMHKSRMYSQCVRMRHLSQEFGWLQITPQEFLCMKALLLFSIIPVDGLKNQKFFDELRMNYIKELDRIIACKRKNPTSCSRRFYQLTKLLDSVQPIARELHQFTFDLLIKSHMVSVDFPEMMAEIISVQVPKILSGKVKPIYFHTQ
The data set is described as follows: Inhibition of androgen receptor in human LNCaP cells assessed as inhibition of prostate-specific antigen secretion into media after 3 days. Type of data set: cell-based.

Data set [2] concerns the target T1, Androgen receptor. In words: Inhibition of androgen receptor transcriptional activity in human LNCaP cells after 3 days by eGFP assay. The format is cell-based.
A short description of data set [3]: Stability of the compound in RPMI plus 5% charcoal stripped serum media after 1 hr by MS analysis. Type of data set: physicochemical.
The nature of data set [4]: Growth inhibition of AR-negative human PC3 cells after 3 days by MTS assay. The settings on record: pc-3, 72 h. The format is cell-based.
For the next data set, the system named is LNCaP. In words: Growth inhibition of AR-dependent human LNCAP cells at 0.001 to 3 uM after 3 days by MTS assay. The format is functional, cell-based.

As to `c1ccc(-c2ccc(N3CCOCC3)s2)cc1`, the half-inhibitory concentration (IC50) came out at 510 nM on Androgen receptor [1] and 520 nM on Androgen receptor [2].
Regarding `Nc1ccccc1-c1csc(N2CCOCC2)n1`, the IC50 stood at 2030 nM at Androgen receptor [1] and 1380 nM against Androgen receptor [2].
For `OCc1sc(N2CCOCC2)nc1-c1ccccc1`, the IC50 against Androgen receptor [2] worked out at 5040 nM.
Turning to `c1ccc(-c2csc(N3CCCCC3)n2)cc1`, the values for the IC50 on Androgen receptor [1] and against Androgen receptor [2] were 690 nM and 1030 nM, respectively.
`c1cc(-c2csc(N3CCOCC3)n2)cs1`: the results for the IC50 at Androgen receptor [1] and on Androgen receptor [2] were 220 nM and 260 nM, respectively.
`Fc1ccc(-c2csc(N3CCSCC3)n2)cc1` gave a 50% inhibitory concentration (IC50) at Androgen receptor [2] of 1590 nM.
With `c1ccc2nc(-c3ccncc3)ccc2c1`, the figures for the IC50 at Androgen receptor [1] and on Androgen receptor [2] were 2260 nM and 4200 nM, respectively.
Regarding `Brc1cn(-c2csc(N3CCOCC3)n2)cn1`, the IC50 was 1740 nM on Androgen receptor [1] and 2800 nM against Androgen receptor [2].
For `Ic1ncn(-c2csc(N3CCOCC3)n2)c1I`, the 50% inhibitory concentration (IC50) at Androgen receptor [1] was 1810 nM; against Androgen receptor [2] it was 1730 nM. Also, the Stability result in data set [3] is given as “Stable”.
As for `CNc1nc(-c2ccc3ccccc3c2)cs1`, the 50% inhibitory concentration (IC50) is 3910 nM at Androgen receptor [1] and 3170 nM against Androgen receptor [2].
As for `Cc1ncn(-c2csc(N3CCOCC3)n2)c1C`, the half-maximal inhibitory concentration (IC50) amounted to 2420 nM at Androgen receptor [1] and 3560 nM on Androgen receptor [2].
Taken in the same sequence, the figures for `Oc1c(-c2csc(N3CCOCC3)n2)ccc(F)c1F` were 700 nM and 800 nM.
Consider `Oc1ccc(-c2ccc3ccccc3n2)cc1`, for which, at Androgen receptor [2], inhibition was half-maximal at 9840 nM (IC50).
Regarding `Clc1ccc(-c2csc(N3CCOCC3)n2)cc1Cl`, the IC50 was 2960 nM at Androgen receptor [1] and 3320 nM at Androgen receptor [2].
Take `Nc1nc(-c2ccc3ccccc3c2)cs1`: the figures for the half-maximal inhibitory concentration (IC50) at Androgen receptor [1] and on Androgen receptor [2] were 10600 nM and 9160 nM, respectively.
The matching figures for `c1ccc(-c2csc(-c3ccncc3)n2)cc1`: 630 nM and 1200 nM.
Regarding `c1cc(-c2csc(N3CCOCC3)n2)ccn1`, the half-inhibitory concentration (IC50) against Androgen receptor [2] was 2940 nM.
With `Cc1scc(-c2csc(N3CCOCC3)n2)c1C`, the IC50 at Androgen receptor [1] was 430 nM; against Androgen receptor [2], 250 nM.
With `Clc1ncn(-c2csc(N3CCOCC3)n2)c1Br`, the figures for the IC50 on Androgen receptor [1] and against Androgen receptor [2] were 440 nM and 330 nM, respectively.
The matching figures for `Oc1cc(F)ccc1-c1csc(N2CCOCC2)n1`: 810 nM and 1190 nM.
Taken in the same sequence, the figures for `FC(F)(F)c1cccc(-c2csc(N3CCOCC3)n2)c1` were 580 nM and 610 nM.
Turning to `Clc1cn(-c2csc(N3CCOCC3)n2)cn1`, the IC50 was 720 nM on Androgen receptor [1] and 960 nM at Androgen receptor [2].
Regarding `FC(F)(F)[C@H]1CN(c2nc(-c3ccccc3)cs2)CCO1`, the results for the concentration for half-maximal inhibition (IC50) at Androgen receptor [1] and against Androgen receptor [2] were 160 nM and 1650 nM, respectively.
Regarding `Cc1cc(C=Cc2ccc3cc(N(C)C)ccc3[n+]2C)c(C)n1-c1ccccc1.O=C([O-])c1cc2ccccc2c(Cc2c(O)c(C(=O)O)cc3ccccc23)c1O`, in data set [4], the Activity result is “Toxic”.
On to `Clc1c(Br)ncn1-c1csc(N2CCOCC2)n1`, for which the IC50 was found to be 1280 nM on Androgen receptor [1] and 1450 nM at Androgen receptor [2].
As to `N#Cc1ccc(-c2ccc(N3CCOCC3)s2)cc1`, the half-inhibitory concentration (IC50) amounted to 890 nM on Androgen receptor [1] and 1440 nM against Androgen receptor [2].
Take `CCc1sc(N2CCOCC2)nc1-c1ccccc1`: the IC50 at Androgen receptor [1] is 8430 nM; at Androgen receptor [2], 5800 nM.
`Fc1ccc(-c2csc(-c3ccncc3)n2)cc1` came in with an IC50 against Androgen receptor [2] of 1270 nM.
As to `Oc1ccc(-c2nc(-c3c[nH]c4ccccc34)cs2)cc1`, the IC50 amounted to 6460 nM on Androgen receptor [1] and 5050 nM against Androgen receptor [2].
Taken in the same sequence, the figures for `Clc1ncn(-c2csc(N3CCOCC3)n2)c1I` were 4020 nM and 2610 nM.
In turn, `COc1c(F)cc(O)cc1-c1csc(N2CCOCC2)n1` gave an IC50 against Androgen receptor [2] of 3020 nM.
The same measure, in the same setting: the result for `Cc1sc(N2CCOCC2)nc1-c1ccccc1` reads 1460 nM.
Turning to `Oc1c(F)cccc1-c1csc(N2CCOCC2)n1`, the IC50 at Androgen receptor [1] turned out to be 150 nM; on Androgen receptor [2], 270 nM.
Taken in the same sequence, the figures for `COc1c(-c2csc(N3CCOCC3)n2)ccc(F)c1F` were 250 nM and 180 nM.
In the case of `Clc1ncn(-c2csc(N3CCOCC3)n2)c1Cl`, the IC50 worked out at 570 nM at Androgen receptor [1] and 680 nM at Androgen receptor [2]. The Stability result in data set [3] is recorded as “Stable”.
Take `c1ccc(-c2cc(N3CCOCC3)cs2)cc1`: the IC50 at Androgen receptor [1] is 840 nM; against Androgen receptor [2], 1240 nM.
With `CS(=O)(=O)c1c(F)cccc1-c1csc(N2CCOCC2)n1`, the concentration for half-maximal inhibition (IC50) at Androgen receptor [2] came out at 3560 nM.
On to `c1ccc(-c2csc(N3CCOCC3)n2)nc1`, for which half-maximal inhibition at Androgen receptor [2] (IC50) was put at 2580 nM.
For the compound `Cc1cc(/C=C/c2ccc3cc(N(C)C)ccc3[n+]2C)c(C)n1-c1ccccc1`, the “growth inhibition (GI)” value in the data set on LNCaP was “inactive”.
On to `COc1cc(F)ccc1-c1csc(N2CCOCC2)n1`, for which the IC50 on Androgen receptor [1] is 230 nM; against Androgen receptor [2], 300 nM.
The matching figures for `Clc1ccc(-c2csc(N3CCOCC3)n2)c(Cl)c1`: 1320 nM and 1660 nM.
As for `Fc1ccc(-c2csc(N3CCOCC3)n2)cc1`, the IC50 at Androgen receptor [1] amounted to 410 nM; at Androgen receptor [2], 650 nM.
In the case of `c1ccc(-c2csc(N3CCSCC3)n2)cc1`, at Androgen receptor [2], the half-maximal inhibitory concentration (IC50) is 620 nM.
With `Oc1ccc2nc(N3CCOCC3)sc2c1`, the concentration for half-maximal inhibition (IC50) came out at 8080 nM on Androgen receptor [1] and 7410 nM against Androgen receptor [2].
The matching figures for `Cc1ccc(C)c(-c2csc(N3CCOCC3)n2)c1`: 520 nM and 620 nM.
